This is an account of results in patent US20250303156A1, “CONCOMITANT TREATMENT OF TTFIELDS AND HMG-CO A REDUCTASE INHIBITORS” (NOVOCURE GMBH, priority 2024, published 2025).

This experiment has as its system non small cell lung cancer (NSCLC). The experiment in a line: clinical study in non small cell lung cancer: survival with statins in addition to TTFields. Type of experiment: in vivo, human. To be noted: statin plus Docetaxel plus TTFields compared to the same statin plus Docetaxel; FIGS. 5-7. The text has this: In some aspects, the materials and methods described in Leal et al. “Tumor Treating Fields therapy with standard systemic therapy versus standard systemic therapy alone in metastatic non-small-cell lung cancer following progression on or after platinum-based therapy (LUNAR): a randomised, open-label, pivotal phase 3 study” Lancet Oncol. 2023 September; 24(9):1002-1017 can be used, such methods and materials are hereby incorporated by reference in its entirety herein. The disclosed experiments were based on a clinical trial in which subjects received Docetaxel or a combination of Docetaxel and TTFields. The patients also received statins during the clinical trial. The statins were not part of the clinical trial, however, the patients were previously on statins due to the chronic condition and continued to receive statins.

Take `CC(C)c1c(C(=O)Nc2ccccc2)c(-c2ccccc2)c(-c2ccc(F)cc2)n1CC[C@@H](O)C[C@@H](O)CC(=O)O` [Atorvastatin, atorvastatin]: the “median survival of patients” value is on record as “increase in median survival”. For `CC(C)c1nc(N(C)S(C)(=O)=O)nc(-c2ccc(F)cc2)c1/C=C/[C@@H](O)C[C@@H](O)CC(=O)O` [Rosuvastatin, rosuvastatin], the “median survival of patients” value is on record as “increase in median survival”.
